Test results as given in patent US11596632B2, “JAK1 pathway inhibitors for the treatment of gastrointestinal disease” (Incyte Corporation, priority 2018, dated 2023).
Entries after “also recorded” stand apart in the source; their conditions may differ.

Assays:
[1] = target: human JAK1 (a.a. 837-1142) (Homo sapiens (Human), UniProt P23458); assay: In vitro JAK kinase assay (HTRF), JAK1; assay type: biochemical; conditions: 1 mM ATP
Protocol: The catalytic activity of JAK1, JAK2 or JAK3 was assayed by measuring the phosphorylation of a biotinylated peptide. The phosphorylated peptide was detected by homogenous time resolved fluorescence (HTRF). […] Reactions are carried out at room temperature for 1 hour and then stopped with 20 μL 45 mM EDTA, 300 nM SA-APC, 6 nM Eu-Py20 in assay buffer (Perkin Elmer, Boston, Mass.). Binding to the Europium labeled antibody takes place for 40 minutes and HTRF signal was measured on a Fusion plate reader (Perkin Elmer, Boston, Mass.).

[2] = test system: IL-10 knockout mouse model of spontaneous colitis; assay: IL-10 knockout mouse model of spontaneous colitis; assay type: in vivo
Excerpt: The interleukin-10 (IL-10) knockout (KO) mouse model mirrors the multifactorial nature of inflammatory bowel disease (IBD), such as ulcerative colitis and Crohn's disease, as IL-10 KO mice, BALB/cAnNTac-1110^em7Tac, spontaneously develop colitis. Colitis in IL-10 KO mice results from an aberrant response of CD4^+ T helper 1-like T cells and an excessive secretion of the proinflammatory cytokines that signal through the Janus kinase/signal transducers and activators of transcription (JAK/STAT) pathway. Compound 1 is a potent JAK1 inhibitor with 22 to >500-fold selectivity for JAK2, JAK3 and TYK2, and is currently being investigated as a monotherapy in a clinical trial for moderate-to-severe ulcerative colitis.
Female IL-10 homozygote knockout mice on the BALB/c strain background were provided by Taconic (USA). From 6 weeks of age onwards, Compound 1 and vehicle (10 mL/kg) were administered by oral gavage twice daily. Diarrhea was quantified on a 0-3 rating scale, (0=normal; 1=soft but still formed; 2=very soft; 3=diarrhea). Mice were euthanized by CO2 asphyxiation and colon length and weight measured. Tissue pathology was scored on a scale of 0 to 10 based on the following criteria: Lymphocytic infiltrate in the mucosa and the gut associated lymphoid tissue located in the lamina propria/submucosa, mucosal erosions/ulcerations, and transmural inflammation. Body weight, stool consistency, fecal occult blood and rectal bleeding were scored. The incidence of rectal prolapse was recorded.

[3] = Circulating and colon tissue drug concentrations in mice, oral vs intracolonic; assay type: in vivo, mouse
Excerpt: Preclinical models of IBD were established in BALB/c mice by intracolonic injection of 2,4,6-trinitrobenzene sulfonic acid (TNBS) or 4-ethoxymethylene-2-phenyl-2-oxazolin-5-one (oxazolone) to trigger an immune response, as described below. Body weight, stool consistency and fecal blood were scored. Additional readouts included colon weight to length ratio and histological evaluation. Blood was collected for pharmacokinetic analysis.
In a further study, quantification of circulating and tissue drug concentrations clearly differentiated the local versus systemic JAK1 target inhibition. […] In contrast, localized Compound 1 delivery was characterized by minimal peak systemic concentrations of approximately 0.04 μM but sustained exposure ≥0.45 μM in the colon tissue, as shown in FIG. 11D. Therefore, strategic targeting or release of JAK1 inhibitors within the inflamed gastrointestinal tissue can potentially achieve improved benefit-risk profiles.

[4] = 30 mg/kg oral twice daily, vs vehicle
[5] = localized intracolonic delivery (3 mg/kg)

human JAK1 (a.a. 837-1142), sequence (P23458 837-1142): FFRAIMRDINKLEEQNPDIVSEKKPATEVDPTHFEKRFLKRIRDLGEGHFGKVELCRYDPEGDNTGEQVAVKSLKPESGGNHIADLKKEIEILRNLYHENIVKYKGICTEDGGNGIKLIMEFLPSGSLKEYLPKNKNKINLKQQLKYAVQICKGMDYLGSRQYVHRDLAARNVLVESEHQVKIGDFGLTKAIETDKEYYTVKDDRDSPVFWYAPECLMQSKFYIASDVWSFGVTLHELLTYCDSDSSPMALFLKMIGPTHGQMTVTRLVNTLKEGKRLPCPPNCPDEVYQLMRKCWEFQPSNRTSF

SMILES: N#CCC1(n2cc(-c3ncnc4[nH]ccc34)cn2)CN(C2CCN(C(=O)c3ccnc(C(F)(F)F)c3F)CC2)C1 [Compound 1, {1-{1-[3-Fluoro-2-(trifluoromethyl)isonicotinoyl]piperidin-4-yl}-3-[4-(7H-pyrrolo[2,3-d]pyrimidin-4-yl)-1H-pyrazol-1-yl]azetidin-3-yl}acetonitrile]
- IC50 [1]: < 10 nM
- colitis / disease onset ([2]; 30 mg/kg oral twice daily): inhibited disease onset; also recorded: significantly (p<0.001) delayed colitis onset
- disease-associated weight loss ([2]; 30 mg/kg oral twice daily): modulated disease-associated weight loss
- colon structural pathology [2, 4]: significant (p<0.01) reduction in colon structural pathology
- cumulative clinical disease score (symptoms) [2, 4]: reduces symptoms; also recorded: significantly (p<0.0001) reduced
- incidence of rectal prolapse [2, 4]: significantly (p<0.01) lower
- lymphocytic infiltration and transmural inflammation [2, 4]: significantly (p<0.01) decreased
- gene expression in the colon ([2]; oral, vs vehicle): differential gene expression profiles in the colon
- colon morphology ([2]; systemic (oral) delivery): significant protective effects on colon morphology
- systemic drug exposure relative to JAK1 IC50 ([3]; intracolonic doses): below JAK1 IC50
- peak systemic concentrations [3, 5]: approximately 0.04 μM
- sustained exposure in the colon tissue [3, 5]: ≥ 0.45 µM
- peak circulating drug level ([3]; oral dosing (30 mg/kg)): approximately 11 μM
